# Patent US10336707B2, “Heterocyclic derivatives modulating activity of certain protein kinases” (EUDENDRON S.R.L., priority 2014, dated 2019)
# How the values were obtained:
# FYN = target: T1, FYN (Homo sapiens, UniProt P06241); assay: Radiometric protein kinase assay (33PanQuinase Activity Assay), FYN; format: biochemical; conditions: ATP 0.3 μM
# T1 construct: either as full-length or enzymatically active fragments; purchased ProQinase GmbH (Freiburg, Germany)
# Method: (§1) A proprietary radiometric protein kinase assay (33PanQuinase® Activity Assay) developed by ProQuinase GmbH (Freiburg, Germany) was used for measuring the kinase activity of selected protein kinases. All assays were performed in FlashPlates™ wells 96 Perkin Elmer (Boston, Mass., USA) in a reaction volume of 50 μl. The reaction mixture was obtained in 4 steps in the following order: • 1. 10 μl of a solution of non-radioactive ATP in water; • 2. 25 μl of assay buffer/[γ-^33P]-ATP mixture • 3. 5 μl of test sample in 10% DMSO • 4. 10 μl of enzyme/substrate mixture
# (§2) All protein kinases provided by ProQinase were expressed in Sf9 insect cells or in E. coli as recombinant GST-fusion proteins or His-tagged proteins, either as full-length or enzymatically active fragments. […] Kinases from external vendors (CAR=Carna Biosciences Inc.; INV=Life Technologies (Invitrogen Corporation); MIL=Merck-Millipore (Millipore Corporation), were expressed, purified and quality-controlled by virtue of the vendors readings.
# (§3) A stock solution of compound of formula (I) was diluted to 5×10-04M/100% DMSO. […] Incorporation of 33Pi (counting of “cpm”) was determined with a microplate scintillation counter (Microbeta, Wallac). […]
# (§4) Based on each 10 corresponding residual activities, IC50 values were calculated using Prism 5.04 for Windows (Graphpad, San Diego, Calif.). […]
# EPHB2 = target: T2, EPHB2 (Homo sapiens, UniProt P29323); assay: Radiometric protein kinase assay (33PanQuinase Activity Assay), EPHB2; format: biochemical; conditions: ATP 0.3 μM
# T2 construct: either as full-length or enzymatically active fragments; purchased ProQinase GmbH (Freiburg, Germany)
# T2 sequence (P29323 19-1055): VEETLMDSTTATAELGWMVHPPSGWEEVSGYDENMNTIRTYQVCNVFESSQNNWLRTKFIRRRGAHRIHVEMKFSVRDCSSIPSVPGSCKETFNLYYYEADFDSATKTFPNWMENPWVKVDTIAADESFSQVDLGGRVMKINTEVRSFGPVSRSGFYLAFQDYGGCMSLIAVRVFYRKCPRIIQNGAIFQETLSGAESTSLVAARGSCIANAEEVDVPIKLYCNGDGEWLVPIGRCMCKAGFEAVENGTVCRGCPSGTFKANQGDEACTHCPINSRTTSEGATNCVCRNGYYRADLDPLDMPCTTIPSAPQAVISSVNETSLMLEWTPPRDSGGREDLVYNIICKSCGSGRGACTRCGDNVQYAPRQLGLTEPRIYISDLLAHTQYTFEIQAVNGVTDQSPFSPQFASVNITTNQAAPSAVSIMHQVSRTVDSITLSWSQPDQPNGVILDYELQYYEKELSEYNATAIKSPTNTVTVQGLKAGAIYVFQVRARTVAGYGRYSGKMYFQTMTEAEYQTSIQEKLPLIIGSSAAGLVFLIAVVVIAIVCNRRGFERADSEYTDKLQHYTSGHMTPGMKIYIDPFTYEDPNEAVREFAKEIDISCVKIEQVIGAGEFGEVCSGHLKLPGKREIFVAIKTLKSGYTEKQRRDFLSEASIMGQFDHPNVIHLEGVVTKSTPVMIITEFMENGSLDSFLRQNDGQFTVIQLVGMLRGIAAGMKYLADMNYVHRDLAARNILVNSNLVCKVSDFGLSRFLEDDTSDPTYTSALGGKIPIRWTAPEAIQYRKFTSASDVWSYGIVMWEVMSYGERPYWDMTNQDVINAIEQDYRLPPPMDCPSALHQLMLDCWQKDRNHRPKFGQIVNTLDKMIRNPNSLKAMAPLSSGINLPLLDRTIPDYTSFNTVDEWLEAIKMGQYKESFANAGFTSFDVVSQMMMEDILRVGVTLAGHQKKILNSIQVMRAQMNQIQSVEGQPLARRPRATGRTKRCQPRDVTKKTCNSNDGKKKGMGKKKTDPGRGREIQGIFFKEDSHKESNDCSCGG
# Method: as §1, §2, §3, §4
# T1 sequence (P06241 whole entry, the tested form may be a part): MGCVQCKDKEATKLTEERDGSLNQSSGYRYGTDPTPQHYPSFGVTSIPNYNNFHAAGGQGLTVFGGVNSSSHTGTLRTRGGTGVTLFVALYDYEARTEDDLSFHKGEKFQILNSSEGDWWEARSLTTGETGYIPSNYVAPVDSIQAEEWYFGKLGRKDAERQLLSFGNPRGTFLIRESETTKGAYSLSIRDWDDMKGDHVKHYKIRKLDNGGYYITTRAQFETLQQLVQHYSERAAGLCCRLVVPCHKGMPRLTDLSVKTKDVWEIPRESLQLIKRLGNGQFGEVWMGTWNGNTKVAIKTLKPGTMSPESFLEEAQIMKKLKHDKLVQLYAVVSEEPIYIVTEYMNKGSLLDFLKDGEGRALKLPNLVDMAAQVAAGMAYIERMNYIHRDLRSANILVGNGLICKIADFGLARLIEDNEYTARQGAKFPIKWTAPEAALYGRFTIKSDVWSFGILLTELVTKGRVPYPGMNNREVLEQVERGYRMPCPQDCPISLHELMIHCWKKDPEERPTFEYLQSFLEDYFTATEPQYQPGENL
smiles,measurement,setting,value
"CN1CCN(c2ccc(C(=O)Nc3n[nH]c4cc(-c5ccc(O)cc5)c(Cc5cc(F)cc(F)c5)cc34)c(NC3CCOCC3)c2)CC1 [Example 3, N-[5-[(3,5-difluorophenyl)methyl]-6-(4-hydroxyphenyl)-1H-indazol-3-yl]-4-(4-methylpiperazin-1-yl)-2-(tetrahydropyran-4-ylamino)benzamide]",IC50,FYN,34 nM
same,IC50,EPHB2,90 nM
